Measurements: patent US10344052B2, “Targeting peptides and uses thereof” (Health Research, Inc., priority 2013, dated 2019)

Test system: ADT-perturbed human prostate cancer vasculature
Test: In vivo selection of Ph.D.-12 phage display library against ADT-perturbed human prostate cancer xenografts, NextGen sequencing of recovered phage
Settings: for # clones recovered: third round of in vivo selection, data of the two tumor specimens combined; for Recovery of Candidate Peptides Percent of Total Phage After 3 Cycles of Selection: xenograft in SCID mouse, 72 h after ADT
Protocol: Male SCID mice were castrated and pre-implanted with silastic tubing to provide sustained-release of testosterone to maintain human serum levels testosterone in the host mouse and to facilitate castration/androgen deprivation (ADT). Human prostate tumor tissue was prepared for transplantation by cutting the radical prostatectomy surgical remnant in ViaSpan into approximately 1.0 mm^3 to 2.0 mm^3 wedges. Tissue was transplanted, into individual incisions in the skin; four pieces of tissue were transplanted on each flank of mice anesthetized with isoflurane. Each piece of tumor tissue was dipped into Matrigel, inserted into an incision, and the incisions closed with tissue glue.
Anastamosis of the human vasculature of the prostate cancer xenografts to the host mouse vascular system occurred between Days 5 and 6 after tissue transplantation, and the vasculature had stabilized by Day 21 after transplantation.
Seventy-two hours after initiation of ADT, the host mouse was anesthetized with acepromazine/ketamine/xylazine and the peptide-phage display library introduced systemically by intra-cardiac injection into the right ventricle. The Ph.D.-12 phage library (NEB, Ipswich, Mass.) was injected at a concentration of 1.2×10^11 pfu in 100 μL. The phage library was allowed to circulate through the mouse host for 15 minutes. At the conclusion of the incubation the vascular volume was replaced by perfusion (40 ml) with PBS to remove unbound phage. […] The xenografts were excised and placed into an eppendorf tube containing 0.5 mL phage elution buffer (0.2 M Glycine-HCl pH 2.2, 0.5% BSA) and the xenografts homogenized with a rotor/stator homogenizer on ice. The phage containing homogenate was cleared by centrifugation at 20,800×G for 5 minutes, and neutralization buffer (Tris-HCl pH 9.1) added to the supernatant. The concentration of phage in the eluate was established by titration: serial 10-fold dilutions of the neutralized phage eluate (10 μl) were added to 200 μL of a mid-log culture of host bacteria (ER2738), the cells/phage mixed with 3.5 mL of molten top agar (48° C.), and plated onto LB. Plates were incubated at 37° C. overnight and blue plaques were counted for determination of pfu. Based on the pfu, an aliquot of the neutralized phage eluate that contained a standardized number of phage was amplified by addition to a 20 mL flask of LB/Tet inoculated with 200 μL of an overnight culture of ER2738, and the culture incubated for 4 hours. The culture was cleared of bacteria by centrifugation, the supernatant treated with ⅙ volume of PEG/NaCl (20% (w/v) PEG-8000, 2.5M NaCl), refrigerated overnight for phage precipitation, and phage recovered by centrifugation. The final phage pellet was resuspended in […] of TBS and titered (as described above). For all in vivo selections the input phage held constant at 1.2×10^11 phage per mouse.
Following the third sequential round of in vivo selection against tissue from a single patient, the recovered phage population was titered, diluted and plated at a concentration to yield approximately 100 plaques per plate. Individual plaques were picked and amplified for conventional DNA sequencing to verify that a diversity of peptides was selected. Subsequently, the region of the phage genome that contained the random peptides embedded in the pIII protein were amplified by PCR from all selected phage libraries in preparation for Next Gen Sequencing. PCR primers were designed that flanked the hyper-variable region of the phage genome, the region containing the peptide inserted into the pIII protein: (FWD:—3gIII: 5′-CCTTTCTATTCTCACTCTGCT-3′ (SEQ ID NO:98); REV:—155gIII: 5′-CCGTAACACTGAGTTTCGTCA-3′ (SEQ ID NO:99)). The amplified segments were the templates for the NextGen DNA sequencing process. Templates were quantified and concentrations normalized and underwent 454 Next Gen sequencing using 500 ng of amplified template DNA at a concentration of […]. […]

Row | Sequence | # clones recovered | also measured
1 | TLQRTHFPRRFG | 3 | –
2 | GAMHLPWHMGTL | – | recovery (in words): high recovery
3 | TMGFTAPRFPSV | 2 | –
4 | SPHWQPNAILLM | 17 | –
5 | TMGFTAPRFPHQ | 8 | –
6 | TLQRTHFPSGVS | 14 | –
7 | TLQRTHFPPARR | 3 | –
8 | SPHWQPNAILL | 2 | –
9 | LLADTTHHRWT | – | Recovery of Candidate Peptides Percent of Total Phage After 3 Cycles of Selection (CaP Tissue Specimen 1): 0.1%; Recovery of Candidate Peptides Percent of Total Phage After 3 Cycles of Selection (CaP Tissue Specimen 2): 0.1%
10 | TMGFTAPRFPLL | 6 | –
11 | TMGFTAPRFPHH | 3 | –
12 | KPPQNTSAPLSS | 3 | –
13 | KPPQNTSAPYLR | 2 | –
14 | KPPQTNTSAPYLP | – | Recovery of Candidate Peptides Percent of Total Phage After 3 Cycles of Selection (CaP Tissue Specimen 1): 27.3%; Recovery of Candidate Peptides Percent of Total Phage After 3 Cycles of Selection (CaP Tissue Specimen 2): 5.48%
15 | TLQRTLFPPVVS | 14 | –
16 | KPPQNTSAPYLP | 659 | –
17 | TLQRTHFSPAFS | 4 | –
18 | TMGFTAPWFPHY | 2 | –
19 | TLQRTHFPPAFF | 22 | –
20 | TLQRTHFPPAFW | 3 | –
21 | TLQRTHFPLAFS | 3 | –
22 | TLQRTHFPSGV | 19 | –

Row | Sequence | # clones recovered | also measured
23 | TLQRTHFPPAAG | 3 | –
24 | TLQRTHFSVR | 4 | –
25 | SPHWQPNAI | – | Recovery of Candidate Peptides Percent of Total Phage After 3 Cycles of Selection (CaP Tissue Specimen 1): 3.29%; Recovery of Candidate Peptides Percent of Total Phage After 3 Cycles of Selection (CaP Tissue Specimen 2): 1.53%
26 | TLQRTHFRPAF | 6 | –
27 | TXGFTAPRFPHY | 47 | –
28 | TLQRTHFPPAFR | 126 | –
29 | TLQRTHFPSGVF | 32 | –
30 | TLQRTHFPPGVF | 5 | –
31 | SPHWQPNAIL | 2 | –
32 | TMGFTAPRFPHR | 4 | –
33 | TLQRTLFSAGVF | 9 | –
34 | TLQRTHFPPA | 30 | –
35 | TLQRTHFRPAFR | 21 | –
36 | DPKFPQNSHLIT | – | Recovery of Candidate Peptides Percent of Total Phage After 3 Cycles of Selection (CaP Tissue Specimen 1): 0.63%; Recovery of Candidate Peptides Percent of Total Phage After 3 Cycles of Selection (CaP Tissue Specimen 2): 0.35%
37 | TLQRTLFSAGRF | 32 | –
38 | TMGFTAPRFPHL | 4 | –
39 | TLQRTHFRRRF | 5 | –
40 | TMGFTAPRFPHC | 2 | –
41 | TLQRTHFPRLFG | 3 | –
42 | GAMHLPWHMGT | – | Recovery of Candidate Peptides Percent of Total Phage After 3 Cycles of Selection (CaP Tissue Specimen 1): 0.21%; Recovery of Candidate Peptides Percent of Total Phage After 3 Cycles of Selection (CaP Tissue Specimen 2): 46.3%
43 | KPPQNTSCAFIF | 2 | –
44 | TLQRTHFRRRFG | 95 | –

Row | Sequence | # clones recovered | also measured
45 | TLQRTHFPRRFR | 6 | –
46 | TLQRTHFPPVVS | 8 | –
47 | TLQRTHFPPAFS | 7988 | Recovery of Candidate Peptides Percent of Total Phage After 3 Cycles of Selection (CaP Tissue Specimen 1): 9.58%; Recovery of Candidate Peptides Percent of Total Phage After 3 Cycles of Selection (CaP Tissue Specimen 2): 7.57%
48 | TMGFTAPRFQHY | 2 | –
49 | TMGFTAPRFPAL | 2 | –
50 | TLQRTHFPSA | 6 | –
51 | HSAQPVKSKAWL | – | Recovery of Candidate Peptides Percent of Total Phage After 3 Cycles of Selection (CaP Tissue Specimen 1): 0.3%; Recovery of Candidate Peptides Percent of Total Phage After 3 Cycles of Selection (CaP Tissue Specimen 2): 0.2%
52 | TLQRTHFPSG | 47 | –
53 | TLQRTHFPPVVF | 19 | –
54 | TMGLTHSRVRIE | 2 | –
55 | KPPQNTSAPY | 2 | –
56 | TMGFTAPRFPHY | – | Recovery of Candidate Peptides Percent of Total Phage After 3 Cycles of Selection (CaP Tissue Specimen 1): 26.5%; Recovery of Candidate Peptides Percent of Total Phage After 3 Cycles of Selection (CaP Tissue Specimen 2): 4.78%
57 | TMGFTAPRFPHM | 2 | –
58 | AETVESCLAKSH | – | Recovery of Candidate Peptides Percent of Total Phage After 3 Cycles of Selection (CaP Tissue Specimen 1): 0.99%; Recovery of Candidate Peptides Percent of Total Phage After 3 Cycles of Selection (CaP Tissue Specimen 2): 0.5%
59 | TLQRTHFPPAFP | 3 | –
60 | TMGFTAPRFP | 9 | –
61 | TMGFTAPRRGAV | 2 | –
62 | TLQRIHFPPAFS | 5 | –
63 | SPHWQPNAIFVN | 36 | –
64 | DQHGFMHIFDL | – | Recovery of Candidate Peptides Percent of Total Phage After 3 Cycles of Selection (CaP Tissue Specimen 1): 0.4%; Recovery of Candidate Peptides Percent of Total Phage After 3 Cycles of Selection (CaP Tissue Specimen 2): 0.1%
65 | TMGFTAPRFRIM | 5 | –
66 | TLQRTHFSAGVF | 116 | –
